Reference: ChEMBL document CHEMBL3774345, “Synthesis of new diarylamides with pyrimidinyl pyridine scaffold and evaluation of their anti-proliferative effect on cancer cell lines” (Bioorg Med Chem Lett, 2016)
pIC50: −log10 of the molar value.

Legend:
NCI-H322M [1] = test: Cytotoxicity against human NCI-H322M cells after 24 hrs by SRB assay; type: functional
SN12C = test: Cytotoxicity against human SN12C cells assessed as cell growth at 10 uM after 24 hrs by SRB assay; type: functional; conditions: read-out: Activity
SK-MEL-28 = test: Cytotoxicity against human SK-MEL-28 cells assessed as cell growth at 10 uM after 24 hrs by SRB assay; type: functional; conditions: SK-MEL-28, 24 h, read-out: Activity
[2] = Cytotoxicity against human SW620 cells assessed as cell growth at 10 uM after 24 hrs by SRB assay; type: functional; conditions: SW-620, 24 h, read-out: Activity
NCI-H322M [3] = test: Cytotoxicity against human NCI-H322M cells assessed as cell growth at 10^-8 M after 24 hrs by SRB assay; type: functional; conditions: read-out: Activity
[4] = Cytotoxicity against human UO31 cells assessed as cell growth at 10 uM after 24 hrs by SRB assay; type: functional; conditions: UO-31, 24 h, read-out: Activity
SK-MEL-5 = test: Cytotoxicity against human SK-MEL-5 cells assessed as cell growth at 10 uM after 24 hrs by SRB assay; type: functional; conditions: SK-MEL-5, 24 h, read-out: Activity
[5] = Cytotoxicity against human OVCAR5 cells assessed as cell growth at 10^-7 M after 24 hrs by SRB assay; type: functional; conditions: OVCAR-5, 24 h, read-out: Activity
[6] = Cytotoxicity against human HOP92 cells assessed as cell growth at 10 uM after 24 hrs by SRB assay; type: functional; conditions: HOP-92, 24 h, read-out: Activity
[7] = Cytotoxicity against human UACC257 cells assessed as cell growth at 10 uM after 24 hrs by SRB assay; type: functional; conditions: UACC-257, 24 h, read-out: Activity
NCI-H522 = test: Cytotoxicity against human NCI-H522 cells assessed as cell growth at 10 uM after 24 hrs by SRB assay; type: functional; conditions: NCI-H522, 24 h, read-out: Activity
[8] = Cytotoxicity against human HCT15 cells assessed as cell growth at 10 uM after 24 hrs by SRB assay; type: functional; conditions: HCT-15, 24 h, read-out: Activity
T47D = test: Cytotoxicity against human T47D cells assessed as cell growth at 10 uM after 24 hrs by SRB assay; type: functional; conditions: read-out: Activity
NCI-H226 = test: Cytotoxicity against human NCI-H226 cells assessed as cell growth at 10 uM after 24 hrs by SRB assay; type: functional; conditions: NCI-H226, 24 h, read-out: Activity
[9] = Cytotoxicity against human NCI-ADR-RES cells assessed as cell growth at 10 uM after 24 hrs by SRB assay; type: functional; conditions: read-out: Activity
M14 = test: Cytotoxicity against human M14 cells assessed as cell growth at 10 uM after 24 hrs by SRB assay; type: functional; conditions: M14, 24 h, read-out: Activity
[10] = Cytotoxicity against human LOXIMVI cells assessed as cell growth at 10 uM after 24 hrs by SRB assay; type: functional; conditions: LOX IMVI, read-out: Activity
NCI-H322M [11] = test: Cytotoxicity against human NCI-H322M cells assessed as cell growth at 10 uM after 24 hrs by SRB assay; type: functional; conditions: read-out: Activity
A549 [12] = test: Cytotoxicity against human A549 cells assessed as cell growth at 10 uM after 24 hrs by SRB assay; type: functional; conditions: A549, 24 h, read-out: Activity
[13] = Cytotoxicity against human Hs 578T cells assessed as cell growth at 10 uM after 24 hrs by SRB assay; type: functional; conditions: read-out: Activity
[14] = Cytotoxicity against human HCT116 cells assessed as cell growth at 10 uM after 24 hrs by SRB assay; type: functional; conditions: HCT-116, 24 h, read-out: Activity
[15] = Cytotoxicity against human SF268 cells assessed as cell growth at 10^-5 M after 24 hrs by SRB assay; type: functional; conditions: SF-268, 24 h, read-out: Activity
NCI-H23 = test: Cytotoxicity against human NCI-H23 cells assessed as cell growth at 10 uM after 24 hrs by SRB assay; type: functional; conditions: NCI-H23, 24 h, read-out: Activity
786-0 = test: Cytotoxicity against human 786-0 cells after 24 hrs by SRB assay; type: functional, cell-based; conditions: 786-0, 24 h
ACHN = test: Cytotoxicity against human ACHN cells assessed as cell growth at 10 uM after 24 hrs by SRB assay; type: functional; conditions: read-out: Activity
[16] = Cytotoxicity against human SNB75 cells assessed as cell growth at 10^-5 M after 24 hrs by SRB assay; type: functional; conditions: SNB-75, 24 h, read-out: Activity
[17] = Cytotoxicity against human COLO205 cells assessed as cell growth at 10 uM after 24 hrs by SRB assay; type: functional; conditions: COLO 205, 24 h, read-out: Activity
A549 [18] = test: Cytotoxicity against human A549 cells assessed as cell growth at 10^-4 M after 24 hrs by SRB assay; type: functional; conditions: A549, 24 h, read-out: Activity
[19] = read-out: LC50 (the source's name)
[20] = read-out: pLC50 (the source's name) (converted)

O=C(Nc1cc(-c2cccnc2)nc(NCCCN2CCOCC2)n1)c1cc(Br)cc(C(F)(F)F)c1
GI50 (NCI-H322M [1]; read-out: GI50): 3.72 µM | CC50 (NCI-H322M [1]; [19]): 43.2 µM | TGI (NCI-H322M [1]; read-out: TGI): 15 µM | GI50 (NCI-H322M [1]; read-out: pGI50 (converted)): 3.72 µM | CC50 (NCI-H322M [1]; [20]): 43.7 µM | TGI (NCI-H322M [1]; read-out: pTGI (converted)): 15.1 µM | growth at 10 µM (SN12C): 67.2% | growth at 10 µM (SK-MEL-28): -49.8% | growth at 10 µM [2]: 75.4% | growth at 0.01 µM (NCI-H322M [3]): 98% | growth at 10 µM [4]: 42% | growth at 10 µM (SK-MEL-5): 3.78% | growth at 0.1 µM [5]: 92% | growth at 10 µM [6]: 34.6% | growth at 10 µM [7]: -27.1% | growth at 10 µM (NCI-H522): 60.2% | growth at 10 µM [8]: 6.87% | growth at 10 µM (T47D): 46.4% | growth at 10 µM (NCI-H226): 73.8% | growth at 10 µM [9]: 56.6% | growth at 10 µM (M14): -72.1% | growth at 10 µM [10]: -16.8% | growth at 10 µM (NCI-H322M [11]): 58.2% | growth at 10 µM (A549 [12]): 67.9% | growth at 10 µM [13]: 54% | growth at 10 µM [14]: 35.7% | growth at 10 µM [15]: 1% | growth at 10 µM (NCI-H23): 80.9% | pIC50 (786-0): 5.81 | GI50 (786-0; read-out: GI50): 1.55 µM | CC50 (786-0; [19]): 6.47 µM | TGI (786-0; read-out: TGI): 3.17 µM | GI50 (786-0; read-out: pGI50 (converted)): 1.55 µM | CC50 (786-0; [20]): 6.46 µM | TGI (786-0; read-out: pTGI (converted)): 3.16 µM | growth at 10 µM (ACHN): 75.6% | growth at 10 µM [16]: -60% | growth at 10 µM [17]: 1.11% | growth at 100 µM (A549 [18]): -95%
